“And” between values parts separate entries of the source, which are not always exact repeats. Equal values may be shown once. Read-outs that look alike come from different tables or passages of the source.
Legend:
Junin virus = assay: microbe, parasite or virus in culture; assay type: cell-based
LCMV = assay: microbe, parasite or virus in culture; assay type: cell-based, lymphocytic choriomeningitis virus (LCMV)
[1] = system: Lassa virus (Josiah strain); assay type: cell-based
[2] = system: Lassa virus (LF2384 strain); assay: microbe, parasite or virus in culture; assay type: cell-based; details: Mammarenavirus lassaense, Vero, 72 h, read-out: Log10 of IC90 (nM) (converted)
[3] = Mammarenavirus juninense, HEK-293T, 96 h
[4] = Mammarenavirus choriomeningitidis, KB, 96 h

SMILES	EC50 (Junin virus; [3]) [nM]	EC50 (LCMV; [4]) [nM]	also measured
CC(C)N1CN(C2c3ccccc3CCc3ccccc32)n2cc(C(=O)O)c(=O)c(O)c2C1=O [Compound I-021]	8.2	2	Lassa virus proliferation inhibitory effect compared with control compound Ribavirin [1]: significantly stronger Lassa virus proliferation inhibitory effect than the control compound Ribavirin; Virus infectivity titer (24 h.p.i., PFU/ml) [1]: 5 × 10^4 PFU/ml and <10 PFU/ml; Virus infectivity titer (48 h.p.i., PFU/ml) [1]: 5 × 10^6 PFU/ml and 5 × 10^3 PFU/ml; IC90 [2]: 3.1 nM
CCN1CN(C2c3ccccc3CCc3ccccc32)n2cc(C(=O)O)c(=O)c(O)c2C1=O [Compound I-078]	3.3	6.2	IC90 [2]: 3.14 nM
O=C(O)c1cn2c(c(O)c1=O)C(=O)N(Cc1ccc(F)cc1F)CN2C1c2ccccc2CCc2ccccc21 [Compound I-081]	6.1	24	–
O=C(O)c1cn2c(c(O)c1=O)C(=O)N(C1CC1)CN2C1c2ccccc2CCc2ccccc21 [II-001]	4.5	8.1	–
O=C(O)c1cn2c(c(O)c1=O)C(=O)N(C[C@@H]1CCCO1)CN2C1c2ccccc2CCc2ccccc21 [II-002]	12	7.1	–
O=C(O)c1cn2c(c(O)c1=O)C(=O)N(CC1CC1)CN2C1c2ccccc2CCc2ccccc21 [II-003]	6.7	8	IC90 [2]: 2.53 nM
CN1CN(C2c3ccccc3CCc3ccccc32)n2cc(C(=O)O)c(=O)c(O)c2C1=O [II-004]	9.2	24	–
CC(C)N1CN(C2c3ccccc3Oc3ccccc32)n2cc(C(=O)O)c(=O)c(O)c2C1=O [III-001]	110	19	–
CC(C)N1CN(C2c3ccccc3C=Cc3ccccc32)n2cc(C(=O)O)c(=O)c(O)c2C1=O [III-002]	4.4	11	–
CC(C)N1CN(C2c3ccccc3CCc3ccccc32)n2cc(C(N)=O)c(=O)c(O)c2C1=O [III-003]	302	676	–
CON(C)C(=O)c1cn2c(c(O)c1=O)C(=O)N(C(C)C)CN2C1c2ccccc2CCc2ccccc21 [III-004]	21	27	–
CC(C)N1CN(Cc2ccccc2CCc2ccccc2)n2cc(C(=O)O)c(=O)c(O)c2C1=O [III-005]	243	90	–
CCCCCN1CN(C2c3ccccc3CCc3ccccc32)n2cc(C(=O)O)c(=O)c(O)c2C1=O [III-006]	9.4	25	–
O=C(O)c1cn2c(c(O)c1=O)C(=O)N(CC1CCOCC1)CN2C1c2ccccc2CCc2ccccc21 [III-007]	16	14	–
COc1ccc(CN2CN(C3c4ccccc4CCc4ccccc43)n3cc(C(=O)O)c(=O)c(O)c3C2=O)cc1 [III-008]	14	19	–
O=C(O)c1cn2c(c(O)c1=O)C(=O)N(Cc1ccc(F)cc1Cl)CN2C1c2ccccc2CCc2ccccc21 [III-009]	19	37	–
O=C(O)c1cn2c(c(O)c1=O)C(=O)N(CCc1ccc(F)cc1F)CN2C1c2ccccc2CCc2ccccc21 [III-011]	97	55	–
O=C(O)c1cn2c(c(O)c1=O)C(=O)N(CC1CCCCC1)CN2C1c2ccccc2CCc2ccccc21 [III-012]	21	38	–
O=C(O)c1cn2c(c(O)c1=O)C(=O)N(CC1CC1)CN2C1c2ccccc2CSc2ccccc21 (stereo not drawn) [III-013]	–	–	EC50 (Junin virus): 3.7 nM; EC50 (LCMV): 3.3 nM
O=C(O)c1cn2c(c(O)c1=O)C(=O)N(CC1CC1)CN2C1c2ccccc2CSc2ccccc21 (stereo not drawn) [III-014]	–	–	EC50 (Junin virus): 276 nM; EC50 (LCMV): 130 nM
O=C(O)c1cn2c(c(O)c1=O)C(=O)N(CC1CCCC1)CN2C1c2ccccc2CCc2ccccc21 [III-015]	25	17	–

SMILES	EC50 (Junin virus; [3]) [nM]	EC50 (LCMV; [4]) [nM]	also measured
O=C(O)c1cn2c(c(O)c1=O)C(=O)N(CC1CCC1)CN2C1c2ccccc2CCc2ccccc21 [III-016]	12	7.3	–
O=C(O)c1cn2c(c(O)c1=O)C(=O)N(C(C1CC1)C1CC1)CN2C1c2ccccc2CCc2ccccc21 [III-017]	4.9	4.4	–
O=C(O)c1cn2c(c(O)c1=O)C(=O)N(CC1CC1)CN2C(c1ccc(-c2ccccc2)cc1)c1ccc(-c2ccccc2)cc1 [III-018]	173	399	–
CCN1CN(C2c3ccccc3CCc3ccccc32)n2nc(C(=O)O)c(=O)c(O)c2C1=O [III-019]	72	39	–
CC(C)N1CN(C2c3ccccc3CSc3ccccc32)n2cc(C(=O)O)c(=O)c(O)c2C1=O (stereo not drawn) [III-020]	–	–	EC50 (Junin virus): > 200 nM; EC50 (LCMV): 121 nM
CC(C)N1CN(C2c3ccccc3CSc3ccccc32)n2cc(C(=O)O)c(=O)c(O)c2C1=O (stereo not drawn) [III-021]	–	–	EC50 (Junin virus): 6.2 nM; EC50 (LCMV): 4.9 nM
CC(C)N1CN(C2c3ccc(F)cc3CCc3cc(F)ccc32)n2cc(C(=O)O)c(=O)c(O)c2C1=O [III-023]	17	14	–
Cc1ccc2c(c1)C(N1CN(C(C)C)C(=O)c3c(O)c(=O)c(C(=O)O)cn31)c1cc(C)ccc1CC2 [III-024]	> 200	83	–
CC(C)N1CN(C2c3ccc(Cl)cc3CCc3cc(Cl)ccc32)n2cc(C(=O)O)c(=O)c(O)c2C1=O [III-025]	31	17	–
O=C(O)c1cn2c(c(O)c1=O)C(=O)N(CC1CC1)CN2C(c1ccccc1)c1ccccc1 [III-027]	13	19	–
O=C(O)c1cn2c(c(O)c1=O)C(=O)N(C(C1CC1)C1CC1)CN2C1c2ccccc2CSc2ccccc21 (stereo not drawn) [III-028]	–	–	EC50 (Junin virus): 2.4 nM; EC50 (LCMV): 2.1 nM
O=C(O)c1cn2c(c(O)c1=O)C(=O)N(C(C1CC1)C1CC1)CN2C1c2ccccc2CSc2ccccc21 (stereo not drawn) [III-029]	–	–	EC50 (Junin virus): 182 nM; EC50 (LCMV): 63 nM
O=C(O)c1cn2c(c(O)c1=O)C(=O)N(CC1CC1)CN2C(c1cccc(-c2ccccc2)c1)c1cccc(-c2ccccc2)c1 [III-030]	18	78	–
Cc1cccc2c1CCc1c(C)cccc1C2N1CN(CC2CC2)C(=O)c2c(O)c(=O)c(C(=O)O)cn21 [III-031]	4.5	4.1	–
Cc1cccc2c1CCc1c(C)cccc1C2N1CN(C(C2CC2)C2CC2)C(=O)c2c(O)c(=O)c(C(=O)O)cn21 [III-032]	17	28	–
Cc1cccc2c1CCc1c(C)cccc1C2N1CN(CC2CCC2)C(=O)c2c(O)c(=O)c(C(=O)O)cn21 [III-033]	6.4	8.8	–
O=C(O)c1cn2c(c(O)c1=O)C(=O)N(CC1CC1)CN2C1c2cccc(F)c2CCc2c(F)cccc21 [III-034]	4.5	3.5	–
O=C(O)c1cn2c(c(O)c1=O)C(=O)N(CC1CCC1)CN2C1c2cccc(F)c2CCc2c(F)cccc21 [III-035]	9.6	7.2	–
O=C(O)c1cn2c(c(O)c1=O)C(=O)N(C(C1CC1)C1CC1)CN2C1c2cccc(F)c2CCc2c(F)cccc21 [III-036]	5.1	6.3	–
NC(=O)c1ncn([C@@H]2O[C@H](CO)[C@@H](O)[C@H]2O)n1 [Ribavirin, reference compound]	–	–	Virus infectivity titer (48 h.p.i., PFU/ml) [1]: 9 × 10^4 PFU/ml and 6 × 10^6 PFU/ml and 5 × 10^6 PFU/ml

— US12098151B2 (priority 2018, dated 2024)
